Assay results: patent US11752122B2 (OKLAHOMA MEDICAL RESEARCH FOUNDATION, priority 2018, dated 2023)
Entries after “also recorded” stand apart in the source; their conditions may differ. Like-named read-outs stand apart in the source and are kept apart here.

Assays:
[1] = tested on: aortic valves of LDLR mice on HFD; assay: Histology and immunohistochemical staining of aortic valves of LDLR mice on HFD; assay type: in vivo; settings: LDLR mice at 6 months on HFD, NAC 3-5 and 5-6 months combined, vs untreated
Experimental: Histology and immunofluorescent staining of aortic valve sections. Mice receiving HFD were euthanized at 6 months and perfused with PBS. Hearts with their attached ascending aorta were excised, fixed in 4% paraformaldehyde for 24 hours and processed for routine paraffin embedding. Tissues were cut in 5 μm thick sections in the middle of the heart to get maximum valve thickness (FIG. 12) and stained with picrosirius red for collagen. For immunofluorescent staining, tissue sections were deparaffinized and rehydrated by immersing in xylene and a series of graded alcohols, followed by heat (97° C.)-induced epitope retrieval using Tris-EDTA buffer, pH 9.0 for 30 minutes. Slides were incubated for 1 hour at RT with blocking buffer (1% BSA+0.3M glycine in Tris-NaCl-Tween buffer) and then incubated overnight at 4° C. with primary antibodies at final concentrations of 0.5 μg/ml. After washing in wash buffer (Tris-NaCl-Tween) and incubation with a fluorescent secondary antibody at RT for 2 hours, slides were washed with wash buffer three times and mounted with a fluorescence mounting medium containing diamidino-2-phenylindole (DAPI) to stain nuclei.
Images were photographed using Ziess 710 Confocal or Nikon eclipse 80i fluorescence microscope. Positively-stained areas and total valve areas in immunohistochemical and histological images were quantified as shown in FIG. 13. Primary antibodies used were anti-phospho-Smad2 (Ser465/467) (AB3849, Millipore), anti-vimentin (ab92547, Abcam), anti-α-SMA (904601, Biolegend), Isolectin B4 (121411, Life Technologies), anti-CD41 (14-0411, eBioscience), anti-CD62P (148301, Biolegend), and anti-collagen (SAB1402151, Sigma). Species-matched secondary antibodies conjugated to Alexa 488, Alexa 594, or Alexa 647 were used. Histology images were analyzed and quantified using ImageJ (NIH).

[2] = tested on: mouse model; settings: large doses, mouse model; cited from earlier work
[3] = target: T1, latent TGF-β1 released from platelets (Homo sapiens, UniProt P01137); settings: in vitro; cited from earlier work
T1 construct: host or cells: platelet releasate
T1 sequence (P01137 30-278 limits assumed): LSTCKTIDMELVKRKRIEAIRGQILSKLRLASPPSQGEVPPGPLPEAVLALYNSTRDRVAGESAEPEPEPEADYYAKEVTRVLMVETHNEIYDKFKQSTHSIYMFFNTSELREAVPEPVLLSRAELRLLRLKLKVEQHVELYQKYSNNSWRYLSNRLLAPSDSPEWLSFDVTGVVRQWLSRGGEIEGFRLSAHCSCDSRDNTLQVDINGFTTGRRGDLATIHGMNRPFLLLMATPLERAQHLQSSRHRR
T1 sequence (P01137 279-390 limits assumed): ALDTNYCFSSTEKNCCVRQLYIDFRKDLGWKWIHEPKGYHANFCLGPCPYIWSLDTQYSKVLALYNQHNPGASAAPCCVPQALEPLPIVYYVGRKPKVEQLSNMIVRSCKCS
T1 sequence (Q14766 24-1721 partner): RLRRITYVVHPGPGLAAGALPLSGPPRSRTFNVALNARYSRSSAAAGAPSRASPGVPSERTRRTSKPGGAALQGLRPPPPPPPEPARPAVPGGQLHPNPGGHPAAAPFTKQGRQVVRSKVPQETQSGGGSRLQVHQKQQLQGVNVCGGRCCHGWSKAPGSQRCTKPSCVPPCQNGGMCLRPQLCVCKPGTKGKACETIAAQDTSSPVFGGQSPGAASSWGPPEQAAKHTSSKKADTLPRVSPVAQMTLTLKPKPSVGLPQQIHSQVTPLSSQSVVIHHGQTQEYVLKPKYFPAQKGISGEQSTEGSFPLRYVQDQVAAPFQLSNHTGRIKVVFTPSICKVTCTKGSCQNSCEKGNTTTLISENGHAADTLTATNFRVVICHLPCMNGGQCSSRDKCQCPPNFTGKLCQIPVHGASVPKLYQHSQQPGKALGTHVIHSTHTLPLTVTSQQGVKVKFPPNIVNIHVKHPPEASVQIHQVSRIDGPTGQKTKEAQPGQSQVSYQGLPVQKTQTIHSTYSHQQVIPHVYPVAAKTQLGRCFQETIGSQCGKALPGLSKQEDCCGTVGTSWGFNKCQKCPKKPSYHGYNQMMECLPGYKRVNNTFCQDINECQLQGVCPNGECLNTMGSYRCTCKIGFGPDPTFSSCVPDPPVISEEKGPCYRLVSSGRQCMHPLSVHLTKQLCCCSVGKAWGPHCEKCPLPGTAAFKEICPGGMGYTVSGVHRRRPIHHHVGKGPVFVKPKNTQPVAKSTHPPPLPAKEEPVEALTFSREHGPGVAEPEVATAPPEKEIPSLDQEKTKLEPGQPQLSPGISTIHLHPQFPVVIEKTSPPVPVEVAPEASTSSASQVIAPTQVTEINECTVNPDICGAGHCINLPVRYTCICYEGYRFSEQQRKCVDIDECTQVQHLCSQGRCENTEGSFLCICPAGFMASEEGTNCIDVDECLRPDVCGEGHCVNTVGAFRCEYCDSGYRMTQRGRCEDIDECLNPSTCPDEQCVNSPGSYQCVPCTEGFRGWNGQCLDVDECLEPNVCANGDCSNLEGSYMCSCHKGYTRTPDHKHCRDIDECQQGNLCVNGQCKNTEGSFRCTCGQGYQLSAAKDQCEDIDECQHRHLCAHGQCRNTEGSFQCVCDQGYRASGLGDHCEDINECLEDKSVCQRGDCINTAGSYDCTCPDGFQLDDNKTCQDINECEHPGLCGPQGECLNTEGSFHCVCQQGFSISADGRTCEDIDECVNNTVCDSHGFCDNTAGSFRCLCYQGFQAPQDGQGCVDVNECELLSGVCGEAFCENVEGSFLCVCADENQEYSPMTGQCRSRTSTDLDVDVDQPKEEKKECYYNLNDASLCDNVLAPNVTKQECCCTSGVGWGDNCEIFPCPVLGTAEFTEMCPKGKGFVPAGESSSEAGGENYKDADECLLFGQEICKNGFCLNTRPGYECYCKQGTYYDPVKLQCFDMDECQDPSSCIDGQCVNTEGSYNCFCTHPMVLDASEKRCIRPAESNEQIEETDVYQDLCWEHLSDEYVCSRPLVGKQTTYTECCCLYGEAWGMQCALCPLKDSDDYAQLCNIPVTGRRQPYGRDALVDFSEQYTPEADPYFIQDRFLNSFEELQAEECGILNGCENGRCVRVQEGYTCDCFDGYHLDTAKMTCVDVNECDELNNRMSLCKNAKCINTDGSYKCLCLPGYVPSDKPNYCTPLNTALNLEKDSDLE

[4] = cited from earlier work
[5] = target: T2, TGF-β1 (Mus musculus, UniProt P04202); assay: Shear-dependent TGF-β1 activation in platelet-rich plasma from NAC-treated mice (ELISA); assay type: in vivo; settings: PRP from NAC-treated vs control mice, shear force of 1,800 s^−1 for 2 hours, ELISA (FIG. 4A)
T2 construct: Active TGF-β1 levels in platelet-rich plasma from NAC-treated (n=6) and -untreated (n=8) mice after in vitro stirring; from tissue; host or cells: mouse platelet-rich plasma (blood)
T2 sequence (P04202 30-278 limits assumed): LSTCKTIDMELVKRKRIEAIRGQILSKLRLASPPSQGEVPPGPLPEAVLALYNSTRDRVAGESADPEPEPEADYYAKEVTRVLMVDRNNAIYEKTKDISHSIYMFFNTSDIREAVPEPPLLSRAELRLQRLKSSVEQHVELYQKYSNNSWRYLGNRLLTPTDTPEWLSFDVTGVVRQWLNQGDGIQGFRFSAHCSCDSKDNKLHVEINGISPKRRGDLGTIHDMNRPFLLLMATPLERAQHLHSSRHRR
T2 sequence (P04202 279-390 limits assumed): as the sequence (P01137 279-390 limits assumed) above, with A75S counted along it
T2 sequence (Q8CG19 24-1712 partner): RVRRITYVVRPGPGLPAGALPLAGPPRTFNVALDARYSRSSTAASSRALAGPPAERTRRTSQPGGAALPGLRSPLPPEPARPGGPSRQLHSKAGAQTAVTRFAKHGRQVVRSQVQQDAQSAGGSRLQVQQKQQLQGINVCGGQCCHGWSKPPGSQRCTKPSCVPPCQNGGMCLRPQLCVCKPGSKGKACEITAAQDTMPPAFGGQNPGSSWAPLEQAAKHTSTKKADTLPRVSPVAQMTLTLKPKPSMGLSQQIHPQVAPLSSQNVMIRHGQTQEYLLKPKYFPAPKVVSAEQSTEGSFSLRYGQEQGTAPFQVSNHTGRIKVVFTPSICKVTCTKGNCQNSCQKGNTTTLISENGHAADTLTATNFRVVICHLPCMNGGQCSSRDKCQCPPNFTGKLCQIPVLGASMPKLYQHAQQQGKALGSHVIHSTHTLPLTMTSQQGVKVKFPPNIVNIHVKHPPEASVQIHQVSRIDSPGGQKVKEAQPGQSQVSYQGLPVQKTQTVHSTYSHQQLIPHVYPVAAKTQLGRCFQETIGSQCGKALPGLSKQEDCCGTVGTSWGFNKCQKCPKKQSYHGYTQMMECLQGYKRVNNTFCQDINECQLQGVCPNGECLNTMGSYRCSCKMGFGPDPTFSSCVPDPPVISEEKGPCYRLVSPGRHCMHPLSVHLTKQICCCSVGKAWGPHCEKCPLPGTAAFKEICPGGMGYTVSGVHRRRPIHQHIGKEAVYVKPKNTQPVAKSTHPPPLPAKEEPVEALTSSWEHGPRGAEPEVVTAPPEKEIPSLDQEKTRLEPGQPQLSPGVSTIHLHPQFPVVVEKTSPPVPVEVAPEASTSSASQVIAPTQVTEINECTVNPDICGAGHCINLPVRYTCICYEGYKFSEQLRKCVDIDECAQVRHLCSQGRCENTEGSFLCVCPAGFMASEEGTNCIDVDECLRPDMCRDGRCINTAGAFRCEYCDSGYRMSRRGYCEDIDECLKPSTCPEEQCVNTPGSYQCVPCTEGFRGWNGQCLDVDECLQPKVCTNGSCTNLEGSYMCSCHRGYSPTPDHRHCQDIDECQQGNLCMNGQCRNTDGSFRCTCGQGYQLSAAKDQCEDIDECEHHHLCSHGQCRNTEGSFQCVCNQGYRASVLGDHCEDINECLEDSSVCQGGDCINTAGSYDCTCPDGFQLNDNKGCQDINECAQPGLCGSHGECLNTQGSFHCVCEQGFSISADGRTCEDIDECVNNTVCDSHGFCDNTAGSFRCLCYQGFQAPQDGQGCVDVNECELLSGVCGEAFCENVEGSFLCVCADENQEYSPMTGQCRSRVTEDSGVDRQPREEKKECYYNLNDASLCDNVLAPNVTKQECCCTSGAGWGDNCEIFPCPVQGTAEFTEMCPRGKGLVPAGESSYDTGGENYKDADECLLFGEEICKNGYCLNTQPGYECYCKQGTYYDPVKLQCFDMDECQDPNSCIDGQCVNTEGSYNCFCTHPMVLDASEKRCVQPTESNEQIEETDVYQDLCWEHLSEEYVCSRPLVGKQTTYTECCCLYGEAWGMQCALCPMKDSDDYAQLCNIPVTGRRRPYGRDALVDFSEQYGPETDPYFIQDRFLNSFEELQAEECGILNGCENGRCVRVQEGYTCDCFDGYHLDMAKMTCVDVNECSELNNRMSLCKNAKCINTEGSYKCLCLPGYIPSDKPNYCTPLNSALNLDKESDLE

[6] = IV formulations; cited from earlier work
[7] = Activity and stability of NAC dissolved in water; assay type: physicochemical; settings: up to 15 days; tested by effect on blocking shear-dependent TGF-β1 activation
From the text: Experimental Design. […] Water was replaced with a fresh solution every week.

[8] = tested on: ascending aortic constriction (AAC) model; assay: Cardiac fibrosis in ascending aortic constriction (AAC) model; assay type: in vivo, mice; settings: high shear pressure overload AAC model, NAC treatment (data not shown)
From the text: Ascending Aortic Constriction. Ascending aortic constriction was induced by controlled constriction of the ascending aorta as described previously 26. Briefly, mice were anesthetized with 1.5% isoflurane and the ascending aorta was surgically exposed by a mid-thorax incision. A 2 7-0 suture was placed around both the aorta and an adjacent 27-gauge (0.41 mm OD) needle proximal to the origin of the innominate artery. […] Mice were sacrificed and tissues collected 1 month after the surgery.

[9] = cited from earlier work; remark: listed apart in the source

CC(=O)N[C@@H](CS)C(=O)O [NAC, N-acetylcysteine]
aortic valve area [1]: reduced
fibrosis in aortic valves [1]: reduced
p-Smad2 staining in aortic valves [1]: reduced
damage to the heart and lungs [2]: could potentially cause damage to the heart and lungs
shear-dependent activation of latent TGF-β1 released from platelets [3]: inhibited; also recorded: partially inhibits; also recorded: blocks
solubility ([4]; alcohol): soluble
solubility ([4]; chloroform): practically insoluble
solubility ([4]; ether): practically insoluble
solubility ([4]; water): soluble
TGF-β1 activation (active TGF-β1 levels) in PRP [5]: much lower
patients experiencing anaphylaxis reaction [6]: Up to 18%
activity and stability after dissolving in water [7]: validated
cardiac fibrosis [8]: inhibits cardiac fibrosis
liver damage ([9]; taken 4 hours after alcohol, dose-dependent): made liver damage worse
liver damage ([9]; taken before alcohol): prevented liver damage
